Read-outs that look alike come from different tables or passages of the source.

One data set deals with NmuMG. Put plainly: cells. The following applies: read-out: IC50, NmuMG. In kind it is cell-based, mouse. In short, it runs like this: (§1)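 Plated cells received compound dilutions after 1 h attachment and sat 72 h at 37 °C, 5% CO2. Serum was washed off with PBS before calcein AM staining, since serum esterases interfere. Four-parameter fits with variable Hill slope gave IC50s.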

In the next data set the test system is NCI/ADR-RES. Put plainly: cells. It counts as cell-based, human. In short, it runs like this: as §1
For the next data set, the system named is SK-OV-3. As to the kind of experiment: cells. It counts as cell-based, human. The gist of the method: as §1
A further data set deals with SF-268. Put plainly: cells. In kind it is cell-based, human. In short, it runs like this: as §1
Another data set deals with HCT-116. As to the kind of experiment: High-throughput calcein AM cytotoxicity assay, HCT-116. It counts as cell-based, human. An excerpt: (§2) Standard errors are depicted with error bars.
Another data set concerns NCI-H460. Put plainly: High-throughput calcein AM cytotoxicity assay, NCI-H460. The following applies: read-out: IC50, NCI-H460. In kind it is cell-based, human.
Description: as §2

The next data set concerns the target Na+/K+-ATPase (Cricetulus griseus, UniProt A0A8C2N4Z0). Put plainly: Non-radioactive rubidium ion uptake assay, CHO-K1 cells. It counts as cell-based, hamster. The settings on record: read-out: Na+/K+-ATPase Inhibition IC50. Here is the method:
Na/K-ATPase Assays. Inhibition of Na^+/K^+-ATPase on HEK-293 cells and CHO-K1 cells by the library hits was determined by Aurora Biomed, Inc. using a high-throughput non-radioactive rubidium ion uptake assay. Experiments were conducted in duplicate using three different concentrations. Within each experiment, percent inhibition values at the three concentrations were expressed as the percent reduction of the maximum absorption signal observed for a 0 nM control. IC50 values were determined using the following formula: IC50=[(50−low %)/(high %−low %)]×(high conc.−low conc.)+low conc.
To assess how these structural modifications impact the ability of library members to inhibit Na^+/K^+-ATPases, a fundamental activity of cardiac glycosides (Paula, S., et al., (2005) Biochemistry 44, 498-510), library hits 5β, 15β, 23β, 27β, 33β, 40β, and digitoxin (1) were submitted to a non-radioactive rubidium uptake assay to gauge Na^+/K^+-ATPase inhibition in both […] human embryonic kidney cells and CHO-K1 hamster ovary cells (Gill, S. et al., (2004) ASSAY and Drug Development Technologies 2, 535-542).

Data set [1] deals with nine human cancer cell lines and a mouse mammary normal epithelial control line. Put plainly: High-throughput calcein AM cytotoxicity assay, whole cell line panel. From the text: In the assay, live cells were distinguished by the presence of a ubiquitous intracellular enzymatic activity which converts the non-fluorescent cell-permeable molecule calcein AM to the intensely fluorescent molecule calcein, which is retained within live cells. The IC50 value for each library member represents at least six replicates of dose-response experiments conducted over five concentrations using two-fold dilutions. […] Standard errors are depicted with error bars. Numerical values and corresponding error values can be found in Table 4. Du145: […]; MCF7: human breast carcinoma; HCT-116: human colon carcinoma, Hep3B: human liver carcinoma; SF-268: human CNS glioblastoma; SK-OV-3: human ovary adenocarcinoma; NCI-H460: human lung carcinoma; A549: human lung adenocarcinoma; NCI/ADR-RES: human breast carcinoma; NmuMG: mouse mammary normal epithelial.
Cell Culture: All cell lines except NmuMG were maintained in RPMI 1640 medium from InVitrogen (Cat No. 11875-085) supplemented with 10% w/v fetal bovine serum (FBS) from ICN (Cat No. 2916154) and penicillin-streptomycin (PS) (100 U/mL and 100 μg/mL) from InVitrogen (Cat No. 15140-122). NmuMG cells were maintained in DMEM medium from InVitrogen (Cat No. 11965-084) supplemented with 10% w/v fetal bovine serum (FBS) from ICN (Cat No. 2916154), 10 μg/ml insulin (InVitrogen Cat No 12585-014), and penicillin-streptomycin (PS) (100 U/mL and 100 μg/mL) from InVitrogen (Cat No. 15140-122). Cells were harvested by trypsinization using 0.25% w/v trypsin and 0.1% w/v EDTA from InVitrogen (Cat No. 15-050-057) and then counted in a hemocytometer in duplicate with better than 10% agreement in field counts. Cells were plated at a cell density of 10,000-15,000 cells/well of each Corning Costar 96-well black tissue culture treated microtiter plate (Fisher Cat No. 07-200-627). Cells were grown for 1 h at 37° C., with 5% CO2 in a humidified incubator to allow cell attachment to occur before compound addition.
Library Member Handling and Preparation for Cytotoxicity Assays: Library members were stored at −20° C. under dessicating conditions before the assay. Library member stocks (100×) were prepared in Corning Costar polypropylene 96-well V-bottom polypropylene microtiter plates (Fisher Cat No. 07-200-695). Five serial 1:2 dilutions were made with anhydrous DMSO at 100× the final concentration used in the assay.
Library Member Addition: The library member-containing plates were diluted 1:10 with complete cell culture media. The 10× stocks (10 μL) were added to the attached cells using a Biomek FX liquid handler (Beckman-Coulter). Library member stocks (10 μL) were added to 90 μL of cells in each plate to insure full mixing of stocks with culture media using a Beckman FX liquid handler with 96-well head.
Determination of Cytotoxicity: Cells were incubated with the library members for 72 h before fluorescence reading. Test plates were removed from the incubator and washed 1× in sterile PBS to remove serum containing calcium esterases. Calcein AM reagent (30 μL, […]) was added and the cells were incubated for 30 min at 37° C. Plates were read for emission using a fluorescein filter (excitation 485 nm, emission 535 nm).
IC50 Calculation: For each library member, at least six dose response experiments were conducted. […] To calculate IC50, percent inhibitions were plotted as a function of log [concentration] and then fit to a four-parameter logistic model that allowed for a variable Hill slope using XLfit 4.1.
Cytotoxicity Assays. All cell lines except NmuMG were maintained in RPMI 1640 medium supplemented with 10% w/v fetal bovine serum (FBS) and penicillin-streptomycin (PS) (100 U/mL and 100 μg/mL).

[2] abbreviates: NmuMG mouse mammary normal epithelial control line.
[3] abbreviates: SK-OV-3 cells, read-out: IC50, SK-OV-3.
[4] abbreviates: SF-268 cells, read-out: IC50, SF-268.
Setting [5] is: HCT-116 cells, read-out: IC50, HCT-116.
Setting [6] is: NCI/ADR-RES cells, read-out: IC50, NCI/ADR-RES.

Regarding `CON([C@H]1CC[C@@]2(C)[C@H](CC[C@@H]3[C@@H]2CC[C@]2(C)[C@@H](C4=CC(=O)OC4)CC[C@]32O)C1)[C@@H]1O[C@H](CO)[C@@H](O)[C@H](O)[C@@H]1O` [27β, D-mannoside], the IC50 with NmuMG (setting [2]) was 1000 nM; in the data set with NCI/ADR-RES (NCI/ADR-RES, 72 h, calcein AM, read-out: IC50), 100 ± 10 nM; in the data set on SK-OV-3 (setting [3]), 800 nM; in the data set on SF-268 (setting [4]) it was 2200 nM; in the data set with HCT-116 (setting [5]) it was 800 nM; in the data set with NCI-H460 (NCI-H460 cells), 700 nM. The IC50 on Na+/K+-ATPase is above 300000 nM.
On to `CON([C@H]1CC[C@@]2(C)[C@H](CC[C@@H]3[C@@H]2CC[C@]2(C)[C@@H](C4=CC(=O)OC4)CC[C@]32O)C1)[C@H]1OC[C@H](O)[C@H](O)[C@@H]1O` [5β, L-riboside], for which the IC50 in the data set on NmuMG (setting [2]) is 31 nM; in data set [1] (range over cell lines) it was 18 to 59 nM; in the data set on NCI/ADR-RES (setting [6]), 32 nM; with SK-OV-3 (setting [3]), 45 nM; in the data set on SF-268 (setting [4]) it was 230 nM; with HCT-116 (HCT-116, 72 h, calcein AM, read-out: IC50), 18 ± 2 nM. Moreover, the IC50 with HCT-116 (setting [5]) was 18 nM; in the data set with NCI-H460 (NCI-H460 cells), 53 nM; on Na+/K+-ATPase it was 270000 nM.
Consider `CON([C@H]1CC[C@@]2(C)[C@H](CC[C@@H]3[C@@H]2CC[C@]2(C)[C@@H](C4=CC(=O)OC4)CC[C@]32O)C1)[C@H]1OC[C@H](O)[C@@H](O)[C@@H]1O` [23β, L-xyloside], for which the IC50 is 57 nM in the data set with NmuMG (setting [2]); 138 nM in the data set with NCI/ADR-RES (setting [6]); 220 nM with SK-OV-3 (setting [3]); 490 nM in the data set on SF-268 (setting [4]); 100 nM in the data set on HCT-116 (setting [5]); 80 nM in the data set on NCI-H460 (NCI-H460 cells). The IC50 on Na+/K+-ATPase was above 500000 nM. Also, in data set [1] (cell line panel, 72 h, calcein AM), the “cytotoxicity (in words)” value is “significantly more potent than digitoxin against some cell lines”.
In the case of `C[C@H]1O[C@@H](O[C@H]2[C@@H](O)C[C@H](O[C@H]3[C@@H](O)C[C@H](O[C@H]4CC[C@@]5(C)[C@H](CC[C@@H]6[C@@H]5CC[C@]5(C)[C@@H](C7=CC(=O)OC7)CC[C@]65O)C4)O[C@@H]3C)O[C@@H]2C)C[C@H](O)[C@@H]1O` [digitoxin], the IC50 was above 25000 nM in the data set on NmuMG (Mus musculus); around 440 nM in data set [1] (Homo sapiens, read-out: average IC50); 220 nM in the data set on NCI/ADR-RES (Homo sapiens, NCI/ADR-RES, read-out: IC50, NCI/ADR-RES); 700 nM in the data set with SK-OV-3 (Homo sapiens, SK-OV-3, read-out: IC50, SK-OV-3); 1500 nM in the data set on SF-268 (Homo sapiens, SF-268, read-out: IC50, SF-268); 170 nM with HCT-116 (Homo sapiens, HCT-116, HCT-116 cells, read-out: IC50, HCT-116). Also, in the data set with NCI-H460 (Homo sapiens, NCI-H460, NCI-H460 cells), the IC50 is 280 nM.

The values above are taken from patent US8507411B2, “Neoglycorandomization and digitoxin analogs” (priority 2004, dated 2013).
